In brackets after ≈: the same amount, converted by molar mass. Where two headings read alike, the source gives them in different places.

Results on three compounds are retold here after US20060035848A1, “Broad-spectrum inhibitor of viruses in the Flaviviridae family” (ZymeTx, Inc., priority 2004, published 2006).

Series [1] is described as follows: Cytotoxicity in toxicity control wells of the WNV tests. Type of series: cell-based. The conditions noted are these: African green monkey, Vero 76 cells (kidney), uninfected toxicity control wells.
Series [2] relates to West Nile Virus ATCC VR-82 (strain B956). The series can be described thus: CPE inhibition assay against West Nile virus ATCC VR-82 (visual and neutral red reading). Format: cell-based. Conditions: Vero.
Series [3] has as its system WNV. The series can be described thus: Inhibition of CPE assay at time points after initiation (Table 2). Format: cell-based, West Nile virus. The conditions noted are these: for EC50: West Nile virus, 144 h, read-out: Inhibition of CPE assay EC50.
In series [4] the test system is WNV. The series can be described thus: Virus yield reduction (VYR) assay, West Nile virus. Type of series: cell-based. Conditions: for EC90: West Nile virus, read-out: Virus yield reduction assay EC90.
Series [5] has as its system West Nile virus New York Isolate. The series is described as follows: CPE inhibition assay against West Nile virus New York isolate in Vero cells. Type of series: cell-based.
Series [6] concerns WNV. The conditions noted are these: Morrey et al., 2002; cited from earlier work.
In series [7] the test system is Yellow fever virus (YFV), 17D strain. The series can be described thus: microbe, parasite or virus in culture. Type of series: cell-based. Conditions: Vero.
The test system of series [8] is Banzi virus (BV), H 336 strain. The series is described as follows: microbe, parasite or virus in culture. The conditions noted are these: Vero. Type of series: cell-based.
The subject of series [9] is Bovine viral diarrhea virus (BVDV), TN131 strain. The series can be described thus: microbe, parasite or virus in culture. Format: cell-based. The conditions noted are these: Bovine viral diarrhea virus isolates and strains.
Series [10] can be described thus: in vitro. The conditions noted are these: bovine.
A short description of series [11]: in vitro. Conditions: African green monkey.
Series [12] is described as follows: in vitro. The conditions noted are these: African green monkey. The source holds these as a separate data set.
The test system of a further series is GAPDH mRNA. The series is described as follows: Cytotoxicity by GAPDH mRNA in HCV replicon-containing cells. Conditions: FIG. 1B. In general terms: In antiviral work, replicon cells carry a viral genome segment that copies itself.
Setting [13] is: ATCC VR-82 columns, NR (Neutral red).
Setting [14] is: New York Isolate columns, NR (Neutral red).
[15] abbreviates: New York Isolate columns, Visual.
The mark [16] stands for this setting: 144 h, New York Isolate, Visual, Vero cells, 6 days post-virus exposure.
Where [17] appears, read: New York Isolate, NR (Neutral red), Vero cells.

Usually EC50 stands for the concentration needed to bring the measured effect to its halfway point. By EC90 is commonly meant the point of the concentration-response curve where the effect stands at 90%. As to `O=c1cnn([C@@H]2O[C@H](CO)[C@@H](O)[C@H]2O)c(=O)[nH]1` [6-aza-U, 6-azauridine, reference compound], the CC50 at 6 days is more than 100 µg/mL in [1] (setting [13]); 85 µg/mL (≈ 347 µM) in [1] (ATCC VR-82 columns, Visual); more than 100 µg/mL in series [1] (setting [14]); 85 µg/mL (≈ 347 µM) in series [1] (setting [15]). For the same compound, the EC50 came out at 5 µg/mL (≈ 20.4 µM) in series [2]; 22 µg/mL (≈ 89.7 µM) in series [2] (144 h); 3.1 µg/mL (≈ 12.6 µM) with WNV [3]; 0.9 µg/mL (≈ 3.67 µM) in [5] (setting [16]); 1.6 µg/mL (≈ 6.53 µM) in series [5] (setting [17]). The CPE observed in the series with WNV [3] (8 days post-virus initiation, cells treated with any concentration) is listed as 100%. Moreover, the EC90 in the series with WNV [4] (48 h) stood at 1.6 µg/mL (≈ 6.53 µM); with WNV [4] (144 h), 431 µg/mL (≈ 1760 µM). The “Effect of addition of fresh compound every 2 days on VYR” value with WNV [4] (day 6, compared to no addition of fresh compound) is reported as “did not improve”.

In the case of `NC(=O)c1ncn([C@@H]2O[C@H](CO)[C@@H](O)[C@H]2O)n1` [Ribavirin, reference compound], the “activity against WNV in tissue culture” value with WNV [6] was “poor activity”. The EC50 in series [7] stood at 32 µg/mL (≈ 131 µM); in series [8] it was 60 µg/mL (≈ 246 µM); in series [9] it was 5 µg/mL (≈ 20.5 µM). Also, the CC50 in “in vitro [10]”, in the series “in vitro [11]” and in “in vitro [12]” was more than 100 µg/mL throughout.

`Nc1nc(=O)n2ccn([C@@H]3O[C@H](CO)[C@@H](O)[C@H]3O)c2n1` [ZX-2401, 2-amino-8-(β-D-ribofuranosyl) imidazo [1,2-a]-s-triazine-4-one]: the CC50 at 6 days in series [1] (setting [13]) is more than 100 µg/mL; in [1] (ATCC VR-82 columns, Visual) it was more than 100 µg/mL; in series [1] (setting [14]), more than 100 µg/mL; in [1] (setting [15]), more than 100 µg/mL. In addition, the EC50 in [2] was 3 µg/mL (≈ 10.6 µM); in series [2] (144 h), less than 4.6 µg/mL; with WNV [3], 15 µg/mL (≈ 53 µM); in series [7] it was 10 µg/mL (≈ 35.3 µM); in [8], 5 µg/mL (≈ 17.7 µM); in series [9], 0.6 µg/mL (≈ 2.12 µM). Besides, the EC50 in [5] (setting [16]) stood at 9.5 µg/mL (≈ 33.5 µM); in series [5] (MOI 1.6 × 10^−3, New York strain in Vero cells), 20 µg/mL (≈ 70.6 µM); in series [5] (MOI 1.6 × 10^−4, New York strain in Vero cells) it was 12 µg/mL (≈ 42.4 µM); in series [5] (MOI 5 × 10^−4, New York strain in Vero cells), 15 µg/mL (≈ 53 µM); in series [5] (MOI 5 × 10^−5 (5 CCID50), New York strain in Vero cells), 15 µg/mL (≈ 53 µM); in series [5] (setting [17]), 8 µg/mL (≈ 28.2 µM). The concentration for an effect of 90% (EC90) with WNV [4] (48 h) is 3.3 µg/mL (≈ 11.7 µM); with WNV [4] (144 h) it was 40 µg/mL (≈ 141 µM). The “toxicity as measured by GAPDH mRNA levels” value in the series with GAPDH mRNA is “no toxicity”. The “Toxicity by visual inspection of treated uninfected cultures” value with Vero cells is given as “No toxicity”. Moreover, the CC50 in “in vitro [10]”, in the series “in vitro [11]” and in the series “in vitro [12]” was more than 100 µg/mL in each case.
